Test results: patent publication US8188093B2, “Pyrazinecarboxamide derivatives as HDL-cholesterol raising agents” (Hoffmann-La Roche Inc., priority 2006, dated 2012)

Key:
[1] = system: lean, chow-fed male Sprague-Dawley rats; test: Effects on plasma lipid levels (HDL cholesterol) in lean, chow fed rats; type: in vivo, rat; details: 30 mg/kg p.o. of compound, once daily for five days, size exclusion chromatography AUC
Method: Effects of compounds of formula I on plasma lipid levels were determined in lean, chow-fed male Sprague-Dawley rats with compounds administered by p.o. gavage. After one week of acclimation, blood samples were collected from 4 hour-fasted animals for plasma lipid determination. Animals were then assigned to treatment groups based on HDL-cholesterol levels. Compounds of formula I were administered by gavage, once daily for five days. Control animals received vehicle alone. Blood was collected on day five from 4 hour-fasted rats, 2 hours after a final treatment, for plasma lipid analysis. Total cholesterol, HDL-cholesterol, and triglycerides were determined by measuring total cholesterol, HDL-cholesterol, and triglyceride using colorimetric enzymatic assays (Roche Diagnostic GmbH, Mannheim, Germany). HDL-C was also quantified using size exclusion chromatography on superpose-6 column using a SMART system (Pharmacia). Lipoprotein distribution was calculated assuming a Gaussian distribution for each peak, using a nonlinear, least-squares curve-fitting procedure to calculate the area under the curve (AUC). Compound concentration was also determined in plasma.

hamsters = test: Effects on plasma lipid levels (HDL cholesterol) in hamsters; type: in vivo, hamster; details: 30 mg/kg po of compound, once daily for five days
Method: Efficacy of compounds in modulating plasma lipid levels was determined in hamsters after 5 days of daily administration of compounds. Male hamsters of 6-8 weeks of age were used in the studies. After one week of acclimation, blood samples were collected from 4 hour-fasted animals for plasma lipid determination. Animals were then assigned to treatment groups based on HDL-cholesterol levels. Compounds were administered by gavage, once daily for five days. Control animals received vehicle alone. Blood was collected on day five from 4 hour-fasted hamsters, 2 hours after a final treatment, for plasma lipid analysis. Total cholesterol, HDL-cholesterol, LDL-cholesterol, and triglycerides were determined using colorimetric enzymatic assays (Roche Diagnostic GmbH, Mannheim, Germany). HDL-cholesterol, LDL-cholesterol, and VLDL-cholesterol levels were also quantified using size exclusion chromatography on superpose-6 column using a SMART system (Pharmacia). Lipoprotein distribution was calculated assuming a Gaussian distribution for each peak, using a nonlinear, least-squares curve-fitting procedure to calculate the area under the curve. Compound concentration was also determined in plasma.

[2] = system: obese male Sprague Dawley rats; test: Effects on plasma lipid levels (HDL cholesterol) in obese, high fat diet fed rats; type: in vivo, rat; details: 28-29 days
Method: Efficacy of compounds in modulating plasma lipid levels was determined also in obese male Sprague Dawley rats after 28-29 days administration of compounds. Male Sprague-Dawley rats of 10 weeks of age were fed a high fat diet during 3 weeks. Obese rats were distributed in groups according to homogeneous BW and FI evaluated a week before the start of the treatment. Treatment was administered as food-Admix. On day 29, blood was taken in the morning under slight anesthesia (retro-orbital method) in post-prandial conditions i.e. 4 h after food was removed. Plasma was separated from blood by low speed centrifugation and selected organs were taken (e.g. liver, fat). Total cholesterol, HDL-cholesterol, and triglycerides were determined by measuring total cholesterol, HDL-cholesterol and triglyceride using colorimetric enzymatic assays (Roche Diagnostic GmbH, Mannheim, Germany). HDL-C was also quantified using size exclusion chromatography on superpose-6 column using a SMART system (Pharmacia). Lipoprotein distribution was calculated assuming a Gaussian distribution for each peak, using a nonlinear, least-squares curve-fitting procedure to calculate the area under the curve (AUC). Compound concentration was also determined in plasma.

[3] = 30 mg/kg food admix of compound

In the case of `CCCCOc1ncc(C(=O)N[C@@H]2CCCC[C@H]2O)cc1-c1cc(C(F)(F)F)ccc1F`, the melting point is reported as 172 to 178 °C.
In the case of `C[C@](O)(CNC(=O)c1cnc(OCC2CC2)c(-c2ccc(F)cc2)c1)C1CC1` [N—((R)-2-cyclopropyl-2-hydroxy-propyl)-6-cyclopropylmethoxy-5-(4-fluorophenyl)-nicotinamide], the “HDL Cholesterol levels [AUC as % compared to control]” value [1] is reported as “+73%”.
`O=C(N[C@@H]1CCCC[C@H]1O)c1cnc(Oc2ccccc2Cl)c(-c2ccc(Cl)cc2)n1` [Example 39, 5-(2-Chloro-phenoxy)-6-(4-chloro-phenyl)-pyrazine-2-carboxylic acid ((1R,2R)-2-hydroxy-cyclohexyl)-amide] gave a melting point of 154 to 155 °C.
In the case of `O=C(N[C@@H]1CCCC[C@H]1O)c1cnc(OCC(F)(F)F)c(-c2ccc(Cl)cc2)c1` [5-(4-chloro-phenyl)-N-((1R,2R)-2-hydroxy-cyclohexyl)-6-(2,2,2-trifluoroethoxy)-nicotinamide], the “HDL Cholesterol levels [AUC as % compared to control]” value [1] is reported as “+78%” and the “HDL Cholesterol levels [AUC as % compared to control]” value (hamsters) is reported as “+69%”.
For `O=C(N[C@@H]1CCCC[C@H]1O)c1cnc(OCC2CC2)c(-c2ccc(F)cc2)c1` [6-cyclopropylmethoxy-5-(4-fluoro-phenyl)-N-((1R,2R)-2-hydroxy-cyclohexyl)-nicotinamide], the “HDL Cholesterol levels [AUC as % compared to control]” value [1] was “+35%”.
For `COCCOc1ncc(C(=O)N[C@@H]2CCCC[C@H]2O)cc1-c1ccc(Cl)cc1` [5-(4-chloro-phenyl)-N-((1R,2R)-2-hydroxy-cyclohexyl)-6-(2-methoxy-ethoxy)-nicotinamide], the “HDL Cholesterol levels [AUC as % compared to control]” value [2, 3] was “+50%”.
For `Cc1c(C(=O)NN2CCCCC2)nn(-c2ccc(Cl)cc2Cl)c1-c1ccc(Cl)cc1` [Rimonabant, reference compound], the “HDL Cholesterol levels [AUC as % compared to control]” value ([2]; 10 mg/kg food admix) was “+11%”.
For `O=C(N[C@@H]1CCCC[C@H]1O)c1cnc(OCC2CC2)c(-c2ccc(Cl)cc2)c1` [5-(4-chloro-phenyl)-6-cyclopropylmethoxy-N-((1R,2R)-2-hydroxy-cyclohexyl)-nicotinamide], the “HDL Cholesterol levels [AUC as % compared to control]” value [1] was “+30%” and the “HDL Cholesterol levels [AUC as % compared to control]” value [2, 3] was “+84%”.
